Experiments:
Assay type in all cases: cell-based
[1] = tested on: Cisplatin resistant human ovarian cancer cells; test: Toxicity assay (printed MTD assay) on resistant cells; conditions: various concentrations (1-1000 µM) for 24, 48 or 72 hours
Experimental: Cisplatin resistant human ovarian cancer cells were treated with compounds of example 1 and 4 in comparison with 5-FU at various concentrations (1-1000 µM) for 24, 48 or 72 hours. MTD assay was used for toxicity study.

[2] = tested on: colon tumour cells HCT 116; test: MTT assay (cell viability by mitochondrial dehydrogenase) on colon tumour cells; conditions: in vitro, range of concentrations 1-100 µM
Description: (§1) The compound described in example 4 has been tested in vitro on colon tumour cells HCT 116 and DLD 1. MTT assay was used for toxicity study (spectrophotometric measurement of cell viability by mitochondrial dehydrogenase).

colon tumour cells DLD 1 = test: as above; conditions: in vitro, range of concentrations 1-100 µM
Description: as §1

Row | SMILES | biological activity in comparison with 5-FU [1] | inhibit growth of colon tumour cells [2] | inhibit growth of colon tumour cells (colon tumour cells DLD 1)
1 | CS(=O)(=O)SCCC(=O)OCn1cc(F)c(=O)[nH]c1=O [Example 1, (5-fluoro-2,4-dioxo-3,4-dihydropyrimidin-1(2H)-yl)methyl 3-(methylsulfonylthio)propanoate] | superior to 5-FU | – | –
2 | CS(=O)(=O)SCCOC(=O)CNC(=O)n1cc(F)c(=O)[nH]c1=O [Example 4, 2-(methylsulfonylthio)ethyl 2-(5-fluoro-2,4-dioxo-1,2,3,4-tetrahydropyrimidine-1-carboxamido)acetate] | superior to 5-FU | potently inhibit growth | potently inhibit growth
